Reference: US7041169B2, “Methods of generating and screening for high free energy forms in capillaries” (S.S.C.I., Inc., priority 2000, dated 2006)
In brackets after ≈: the same amount, converted by molar mass. Entries after “also recorded” stand apart in the source; their conditions may differ.

Columns and labels:
Format in all cases: physicochemical
[1] = Solubility of ROY in ethanol; conditions: 25 °C, organic solvent or mixture, 25 degrees C
Experimental: For this example, a solution of ROY in ethanol was prepared. A supersaturated solution of 160.3 mg of ROY in 2 mL of ethanol was prepared, having a supersaturation ratio of 6.7.

[2] = Solubility of ROY in water
[3] = Solidification of WAY from ethanol and aqueous ethanol in capillary tubes at different temperatures (Example 6, Table 1)
Experimental: For this example, solutions of the WAY compound were prepared at a supersaturation ratio of 2 in ethanol and in 10% aqueous ethanol. Each of these WAY solutions was introduced into twenty capillary tubes having a stated inner diameter of 0.5–0.6 mm and which had been washed by soaking in distilled water for about 10 minutes, rinsing with ethanol, and drying for at least an hour at 65 degrees C. The capillary tubes were maintained at room temperature and pressure (about 23 degrees C. and at about 45% relative humidity) and were observed periodically.
Solidification of the WAY compound from ethanol and aqueous ethanol solutions was also done at different temperatures (reported below in degrees Celsius). Table 1 summarizes the results of seven sets of twenty capillary tubes under set different sets of conditions.

[4] = Solidification of WAY from supersaturated ethanol solution in 95 capillary tubes (Example 5)
Experimental: A supersaturated solution of WAY in ethanol was prepared, having a supersaturation ratio of 2. The WAY solution was introduced into 95 capillary tubes. The tubes were left open at both ends and allowed to evaporate to the atmosphere. After about 25 minutes, sixty-two capillary tubes contained crystals. […] After about one hour, four additional capillary tubes contained white crystals, nine additional capillary tubes contained yellow crystals, and one additional capillary tube contained a mixture of white and yellow crystals.

SMILES | solubility [1] [mg/mL] | solubility in water [2] | Result (solid forms in 20 capillary tubes) ([3]; Solvent Aqueous ethanol, Temp 38 degrees Celsius, Time 0:50, tubes with mixed yellow and white crystals) | Result (solid forms in 20 capillary tubes) ([3]; Solvent Aqueous ethanol, Temp 38 degrees Celsius, Time 0:50, tubes with no solids formed) | Result (solid forms in 20 capillary tubes) ([3]; Solvent Aqueous ethanol, Temp 38 degrees Celsius, Time 1:13, tubes with mixed yellow and white crystals) | Result (solid forms in 20 capillary tubes) ([3]; Solvent Aqueous ethanol, Temp 38 degrees Celsius, Time 1:13, tubes with no solids formed) | Result (solid forms in 20 capillary tubes) ([3]; Solvent Aqueous ethanol, Temp 38 degrees Celsius, Time 1:42, tubes with mixed yellow and white crystals) | Result (solid forms in 20 capillary tubes) ([3]; Solvent Aqueous ethanol, Temp 38 degrees Celsius, Time 1:42, tubes with no solids formed) | Result (solid forms in 20 capillary tubes) ([3]; Solvent Aqueous ethanol, Temp −2 degrees Celsius, Time 4:35, tubes with white crystals) | Result (solid forms in 20 capillary tubes) ([3]; Solvent Aqueous ethanol, Temp −2 degrees Celsius, Time 4:35, tubes with yellow crystals) | Result (solid forms in 20 capillary tubes) ([3]; Solvent Ethanol, Temp 38 degrees Celsius, Time 0:50, tubes with mixed white and yellow crystals) | Result (solid forms in 20 capillary tubes) ([3]; Solvent Ethanol, Temp 38 degrees Celsius, Time 0:50, tubes with no solids formed) | Result (solid forms in 20 capillary tubes) ([3]; Solvent Ethanol, Temp 38 degrees Celsius, Time 1:43, tubes with mixed yellow and white crystals) | Result (solid forms in 20 capillary tubes) ([3]; Solvent Ethanol, Temp 38 degrees Celsius, Time 1:43, tubes with no solids formed) | Result (solid forms in 20 capillary tubes) ([3]; Solvent Ethanol, Temp −2 degrees Celsius, Time 4, tubes with white and yellow crystals) | Result (solid forms in 20 capillary tubes) ([3]; Solvent Ethanol, Temp −2 degrees Celsius, Time 4, tubes with white crystals) | solid forms found in capillary tubes ([4]; after about 25 minutes, 95 tubes, sixty-two with crystals) | persistence of high free energy yellow crystals in capillary tubes ([4]; overnight (about thirteen hours and forty minutes), room temperature)
Cc1cc(C#N)c(Nc2ccccc2[N+](=O)[O-])s1 [ROY, 5-methyl-2-[(2-nitrophenyl)amino]-3-thiophenecarbonitrile] | ~12 (≈ 46.3 mM) | generally insoluble in water | – | – | – | – | – | – | – | – | – | – | – | – | – | – | – | –
CC(=O)Nc1ccc(C)cc1[N+](=O)[O-] [WAY, 4-methyl-2-nitro-acetanilide] | – | – | 2/20: mixture of yellow | 18/20: no solids formed | 5/20: mixture of yellow | 15/20: no solids formed | 19/20: mixture of yellow | 1/20: no solids formed | 1/20: white crystals | 19/20: yellow crystals | 16/20: mixture of white | 4/20: no solids formed | 17/20: mixture of yellow | 3/20: no solids formed | 2/20: white and yellow | 10/20: white crystals | forty contained white crystals; also recorded: twenty-two contained yellow crystals | nineteen of those tubes had transformed to white crystals; also recorded: six still contained yellow crystals
